Results as given in publication PMC8201735 (BMC Pharmacology & Toxicology, 2021).
Read-outs that look alike come from different tables or passages of the source.

Columns and labels:
subjects with T2DM = assay: Ambulatory blood pressure monitoring; type: in vivo, human; conditions: for Decrease in diastolic blood pressure at nighttime, Day 13, compared to placebo (metformin alone) / Decrease in systolic blood pressure at nighttime, Day 13, compared to placebo (metformin alone): stated as magnitude of decrease
Description: The ambulatory blood pressure was monitored for […] during inpatient days (beginning Day 1 at 08.00, Day 2 at 08.00 and Day 13 at 08.00). The unit was programmed to take blood pressure readings every 10 min from 08.00 to 10.00, every 20 min from 10.00 to 22.00, and every 30 min from 22.00 to 08.00 the following morning.
(§1) Descriptive statistics were used to summarize baseline demographics, safety data, and pharmacokinetic parameters. Geometric mean and % CVb (between-subject coefficient of variation) were calculated for all pharmacokinetic parameters except tmax. Comparisons of placebo with each active dose of RE were assessed in terms of change from baseline in fasting plasma lactate acid using repeated measures analysis of covariance model. The model included terms for baseline measurement, visit, treatment and visit-by-treatment interaction. The same model was applied to change from baseline in weighted means of day-time, night-time and 0–24 h of blood pressures. Within group treatment comparison was performed using mixed model on log transformed Cmax and AUC (0-last).

[1] = Plasma pharmacokinetics of remogliflozin etabonate and its metabolites during metformin treatment; type: in vivo, human; conditions: for AUC(0-t) / Cmax / Tmax: human, plasma, oral; for AUC(0-t): read-out: AUC (0-last), geometric mean (%CVb); for Cmax: read-out: Cmax, geometric mean (%CVb); for Tmax: read-out: tmax, median (range)
Description: as §1, with “PK analysis was conducted by […] (Chapel Hill, NC, USA), under the direction of Clinical Pharmacokinetics/Modelling and Simulation, GSK using the non-compartmental analysis Model 200 (for extra vascular administration) of WinNonlin Professional Edition version 4.1 (Pharsight Corporation, Mountain View, CA). […] Descriptive” for “Descriptive”, “0-24” for “0–24”

[2] = 24 h, RE 500 mg BID + metformin, N = 14
[3] = 24 h, RE 750 mg BID + metformin, N = 14
[4] = Daytime (10 am to 8 pm), RE 500 mg BID + metformin
[5] = Daytime (10 am to 8 pm), RE 750 mg BID + metformin
[6] = Nighttime (midnight to 6 am), RE 500 mg BID + metformin
[7] = Nighttime (midnight to 6 am), RE 750 mg BID + metformin
[8] = 500 mg, Day 1, after RE 500 mg BID + metformin, N = 16
[9] = 500 mg, Day 13, after RE 500 mg BID + metformin, N = 15
[10] = 750 mg, Day 1, after RE 750 mg BID + metformin, N = 17
[11] = 750 mg, Day 13, after RE 750 mg BID + metformin, N = 16

For CCOC(=O)OC[C@H]1O[C@@H](Oc2nn(C(C)C)c(C)c2Cc2ccc(OC(C)C)cc2)[C@H](O)[C@@H](O)[C@@H]1O [RE, remogliflozin etabonate], the “Ambulatory diastolic BP, adjusted mean change from baseline to Day 13 vs. placebo” value (subjects with T2DM; [2]) was −2.0; p = 0.256 mmHg, the “Ambulatory systolic BP, adjusted mean change from baseline to Day 13 vs. placebo” value (subjects with T2DM; [2]) was −2.8; p = 0.303 mmHg and the “Ambulatory diastolic BP, adjusted mean change from baseline to Day 13 vs. placebo” value (subjects with T2DM; [3]) was −3.3; p = 0.062 mmHg. For the same molecule, the “Ambulatory systolic BP, adjusted mean change from baseline to Day 13 vs. placebo” value (subjects with T2DM; [3]) was −4.0; p = 0.131 mmHg, the “Ambulatory diastolic BP, adjusted mean change from baseline to Day 13 vs. placebo” value (subjects with T2DM; [4]) was −1.8; p = 0.461 mmHg and the “Ambulatory systolic BP, adjusted mean change from baseline to Day 13 vs. placebo” value (subjects with T2DM; [4]) was −3.4; p = 0.291 mmHg. For the same molecule, the “Ambulatory diastolic BP, adjusted mean change from baseline to Day 13 vs. placebo” value (subjects with T2DM; [5]) was −1.3; p = 0.586 mmHg, the “Ambulatory systolic BP, adjusted mean change from baseline to Day 13 vs. placebo” value (subjects with T2DM; [5]) was −2.4; p = 0.441 mmHg and the “Ambulatory diastolic BP, adjusted mean change from baseline to Day 13 vs. placebo” value (subjects with T2DM; [6]) was −6.5; p = 0.006 mmHg. For the same molecule, the “Ambulatory systolic BP, adjusted mean change from baseline to Day 13 vs. placebo” value (subjects with T2DM; [6]) was −8.4; p = 0.020 mmHg, the “Ambulatory diastolic BP, adjusted mean change from baseline to Day 13 vs. placebo” value (subjects with T2DM; [7]) was −4.8; p = 0.043 mmHg and the “Ambulatory systolic BP, adjusted mean change from baseline to Day 13 vs. placebo” value (subjects with T2DM; [7]) was −7.1; p = 0.047 mmHg. For the same molecule, the “Decrease in diastolic blood pressure at nighttime, Day 13, compared to placebo (metformin alone)” value (subjects with T2DM; RE 500 mg BID + metformin) was 6.5 mmHg, the “Decrease in systolic blood pressure at nighttime, Day 13, compared to placebo (metformin alone)” value (subjects with T2DM; RE 500 mg BID + metformin) was 8.4 mmHg and the “Decrease in diastolic blood pressure at nighttime, Day 13, compared to placebo (metformin alone)” value (subjects with T2DM; RE 750 mg BID + metformin) was 4.8 mmHg. The “Decrease in systolic blood pressure at nighttime, Day 13, compared to placebo (metformin alone)” value (subjects with T2DM; RE 750 mg BID + metformin) was 7.1 mmHg, the “AUC(0-last) accumulation ratio Day 13 versus Day 1, point estimate (90% CI)” value ([1]; RE 500 mg + Metformin) was 0.99 (0.857–1.15) and the “AUC(0-last) accumulation ratio Day 13 versus Day 1, point estimate (90% CI)” value ([1]; RE 750 mg + Metformin) was 1.02 (0.861–1.21). The AUC(0-t) ([1]; 500 mg, Day 1, RE 500 mg BID + metformin, N = 16) was 70.9 ng·h/mL, the Cmax [1, 8] was 64.8 ng/mL and the Tmax [1, 8] was 37.8 min. For the same molecule, the AUC(0-t) ([1]; 500 mg, Day 13, RE 500 mg BID + metformin, N = 15) was 73.5 ng·h/mL, the Cmax [1, 9] was 53.3 ng/mL and the Tmax [1, 9] was 30 min. The AUC(0-t) ([1]; 750 mg, Day 1, RE 750 mg BID + metformin, N = 17) was 121 ng·h/mL, the Cmax [1, 10] was 137 ng/mL and the Tmax [1, 10] was 30 min. The AUC(0-t) ([1]; 750 mg, Day 13, RE 750 mg BID + metformin, N = 16) was 121 ng·h/mL, the Cmax [1, 11] was 101 ng/mL and the Tmax [1, 11] was 28.8 min.
